What was measured:
human fibroblasts [1] = test: Induction of chondrocyte from human fibroblast, Alcian Blue staining (Example D); assay type: cell-based; settings: from comparison of combinations of Table 7, FIG. 15
Protocol: As materials, human fibroblasts were purchased from DS Pharma Biomedical Co., Ltd. The fibroblasts were derived from a skin of a human.
The human fibroblasts were seeded on 35 mm dishes at a rate of 5×10^4 cells per a dish, and cultured in DMEM medium (Gibco) to which 10% fetal bovine serum (FBS), 100 U/ml penicillin and 100 μg/ml streptomycin under a condition at 37° C. and 5% CO2 were added to become confluent. Note that the DMEM refers to a Dulbecco's Modified Eagle Medium.
The medium in the dish containing the human fibroblasts was exchanged to a DMEM (Thermo Fisher Scientific, Inc.) containing Insulin-Transferrin-Selenium (Thermo Fisher Scientific, Inc., final concentration: 1%), ascorbic acid-2-phosphate (Wako Pure Chemical Industries, Ltd., final concentration: 50 μg/ml), dexamethasone (Wako Pure Chemical Industries, Ltd., final concentration: 0.1 μM), TGF-β3 (PeproTech, Inc., final concentration: 10 ng/ml), L-proline (Nacalai Tesque, final concentration: 40 μg/ml), Antibiotic-Antimycotic (Thermo Fisher Scientific, Inc., final concentration: 1×), and a low molecular weight compound added according to Table 1. Subsequently, the cells were cultured under the condition at 37° C. and 5% CO2 while exchanging the medium to the medium having the same composition every 3 days. The details of the compounds listed in Table 7 are as aforementioned in the present specification.
As a result of culturing human fibroblasts according to Example (2), chondrocyte-like cells appeared 7 days after the onset of culturing. Twenty-one days after the onset of culturing, the cells were subjected to Alcian Blue staining according to a conventional method, to evaluate the presence or absence of acid polysaccharides which are a cartilage matrix. In the figure, the upper pictures show the results of Alcian Blue staining, and the lower pictures present phase-contrast microscopic images in the same visual fields as of the upper pictures.

human fibroblasts [2] = test: Induction of osteoblast from human fibroblast, von Kossa staining (Example C); assay type: cell-based; settings: from comparison of combinations of Table 6, FIG. 14
Protocol: As materials, human fibroblasts were purchased from DS Pharma Biomedical Co., Ltd. The fibroblasts were derived from a skin of a human. The human fibroblasts were seeded on 35 mm dishes at a rate of 5×10^4 cells per a dish, and cultured in DMEM medium (Gibco) to which 10% fetal bovine serum (FBS), 100 U/ml penicillin and 100 μg/ml streptomycin under a condition at 37° C. and 5% CO2 were added to become confluent. Note that the DMEM refers to a Dulbecco's Modified Eagle Medium. The medium in the dish containing the human fibroblasts was exchanged to a RPMI1640 with L-Glutamine and Phenol Red (Wako Pure Chemical Industries, Ltd.) containing an osteoblast-inducer reagent (Takara Bio Inc.), and a low molecular weight compound added according to Table 1. Subsequently, the cells were cultured under the condition at 37° C. and 5% CO2 while exchanging the medium to the medium having the same composition every 3 days. The details of the compounds listed in Table 6 are as aforementioned in the present specification. As a result of culturing human fibroblasts according to the above (2), osteoblast-like cells appeared 7 days after the onset of culturing. Twenty-one days after the onset of culturing, the cells were subjected to von Kossa staining according to a conventional method, to evaluate the presence or absence of calcium deposition. In the figure, the upper pictures show the results of von Kossa staining, and the lower pictures present phase-contrast microscopic images in the same visual fields as of the upper pictures.

human fibroblasts [3] = test: Induction of cardiomyocyte from human fibroblast, cTnT immunostaining (Example F); assay type: cell-based; settings: from comparison of combinations of Table 9, FIG. 17
Protocol: (§1) As materials, human fibroblasts were purchased from DS Pharma Biomedical Co., Ltd. The fibroblasts were derived from a skin of a human. The human fibroblasts were seeded on 35 mm dishes at a rate of 8×10^4 cells per a dish, and cultured in DMEM high glucose medium (Gibco) to which 10% fetal bovine serum (FBS), 100 U/ml penicillin and 100 μg/ml streptomycin under a condition at 37° C. and 5% CO2 were added for 2 days. Note that the DMEM refers to a Dulbecco's Modified Eagle Medium. […] Subsequently, the cells were cultured under the condition at 37° C. and 5% CO2 while exchanging the medium to the medium having the same composition every 3 days. The details of the compounds listed in Table 9 are as aforementioned in the present specification. As a result of culturing the human fibroblasts in accordance with the above (2), shrinking or beating single cells or small cell masses were recognized 8 days after the onset of culturing. Twenty-one or more days after the onset of culturing, a large number of shrinking or beating cardiomyocyte-like masses were observed. Twenty-one days after the onset of culturing, the cells were immobilized with 2% paraformaldehyde, and then immunostained. For staining, an anti-cTnT antibody (ab10214, Abcam PLC; diluted 200-fold) was used. […] The lower pictures show phase-contrast microscopic images in the same visual fields as of the upper pictures.

human fibroblasts [4] = test: Induction of brown adipocyte from human fibroblast, UCP1 immunostaining (Example A); assay type: cell-based; settings: from comparison of combinations of Table 1, FIG. 1
Protocol: as §1, with “(Wako Pure Chemical Industries, Ltd.)” for “(Gibco)”, “1” for “9”, “adipocyte-like” for “shrinking or beating single”, “appeared 6” for “or small cell masses were recognized 8”, “culturing.” for “culturing. Twenty-one or more days after the onset of culturing, a large number of shrinking or beating cardiomyocyte-like masses were observed.”, “immunostained.” for “immunostained. For staining, an anti-cTnT antibody (ab10214, Abcam PLC; diluted 200-fold) was used.”

human fibroblasts [5] = test: Induction of neural cell from human fibroblast, βIII-tubulin immunostaining (Example E); assay type: cell-based; settings: from comparison of combinations of Table 8, FIG. 16
Protocol: As materials, human fibroblasts were purchased from DS Pharma Biomedical Co., Ltd. The fibroblasts were derived from a skin of a human. The human fibroblasts were seeded on 35 mm dishes at a rate of 8×10^4 cells per a dish, and cultured in DMEM high glucose medium (Wako Pure Chemical Industries, Ltd.) to which 10% fetal bovine serum (FBS), 100 U/ml penicillin and 100 μg/ml streptomycin under a condition at 37° C. and 5% CO2 were added for 2 days. Note that the DMEM refers to a Dulbecco's Modified Eagle Medium. […] Subsequently, the cells were cultured under the condition at 37° C. and 5% CO2 while exchanging the medium to the medium having the same composition every 3 days. The details of the compounds listed in Table 8 are as aforementioned in the present specification. As a result of culturing the human fibroblasts in accordance with the above (2), nerve-like projection structures were recognized 5 days after the onset of culturing. Fourteen days after the onset of culturing, the cells were immobilized with 2% paraformaldehyde, and then immunostained. For staining, an anti-βIII-tubulin antibody (MMS-435P, Covance; diluted 1000-fold) was used. […] The lower pictures show phase-contrast microscopic images in the same visual fields as of the upper pictures.

[6] = tested on: β adrenergic receptor signaling pathway in compound-induced brown adipocytes; test: Isoproterenol or forskolin treatment of compound-induced brown adipocytes, mRNA by QRT-PCR; assay type: cell-based, human; settings: for expression of Cited1 after treatment / expression of Ckmt1 after treatment: 3 or 6 hours, FIGS. 12 C and D
Protocol: For the purpose of quantifying gene expression, the whole RNA was extracted from the fibroblasts treated with each compound, using the RNeasy Mini kit (QIAGEN N.V). As a control, a fibroblast was cultured in parallel, in the adipocyte medium. The cells were treated with 0.1 μM, 1 μM and 10 μM isoproterenol or forskolin for 3 hours or 6 hours, and then the whole RNA was extracted from the brown adipocytes induced with the compound and the control cell. The whole RNA was reversely transferred with ReverTraAce® PCR RT Master Mix with gDNA Remover (TOYOBO CO., LTD.), and then subjected to a real-time PCR analysis using Power SYBR Green PCR Master Mix (Thermo Fisher Scientific, Inc.). For one standard, 3 reactions were carried out under the following condition: 40 cycles of reactions at 95° C. for 10 minutes, at 95° C. for 15 seconds, and at 60° C. for 60 seconds. All results were standardized by the amount of the Tbp mRNA.
Thermogenesis through the Ucp1 is regulated through the sympathetic nervous system and the […] receptor signaling pathway in the brown adipocytes. For the purpose of evaluating the thermogenetic ability in the […] induced with the compounds, the brown adipocytes were treated with isoproterenols (β adrenergic receptor agonist) at 3 different concentrations for 3 hours or 6 hours, and then the Ucp1 mRNA was quantified (FIG. 12 A).

Cc1c[nH]c(-c2cnc(NCCNc3ccc(C#N)cn3)nc2-c2ccc(Cl)cc2Cl)n1 [CHIR99021]
role of the component for differentiation of the chondrocytes (human fibroblasts [1]): important | role of the component for differentiation of the osteoblasts (human fibroblasts [2]): important

c1ccc2c(-c3cnn4cc(-c5ccc(N6CCNCC6)cc5)cnc34)ccnc2c1 [LDN193189]
role of the component for differentiation of the chondrocytes (human fibroblasts [1]): important | role of the component for differentiation of the osteoblasts (human fibroblasts [2]): important

O=C(NOC[C@H](O)CO)c1ccc(F)c(F)c1Nc1ccc(I)cc1F [PD0325901]
role of the component for differentiation of the chondrocytes (human fibroblasts [1]): not contained | role of the component for differentiation into cardiomyocytes (human fibroblasts [3]): important | role of the component for differentiation of the osteoblasts (human fibroblasts [2]): should not be added

Cc1cccc(-c2n[nH]cc2-c2ccc3ncccc3n2)n1 [Repsox]
role of the component for differentiation into cardiomyocytes (human fibroblasts [3]): important

NC(=O)c1ccc(-c2nc(-c3ccc4c(c3)OCO4)c(-c3ccccn3)[nH]2)cc1 [SB431542]
role of the component for differentiation of the chondrocytes (human fibroblasts [1]): important | role of the component for differentiation into brown adipocytes (human fibroblasts [4]): preferable | role of the component for differentiation of the osteoblasts (human fibroblasts [2]): important

c1cc(-c2cnn3cc(-c4ccc(OCCN5CCCCC5)cc4)cnc23)ccn1 [dorsomorphin, Dorsomorphin]
role of the component for differentiation into neural cells (human fibroblasts [5]): important | role of the component for differentiation of the chondrocytes (human fibroblasts [1]): not contained | role of the component for differentiation into cardiomyocytes (human fibroblasts [3]): important | role of the component for differentiation into brown adipocytes (human fibroblasts [4]): preferable

C=C[C@@]1(C)CC(=O)[C@]2(O)[C@@]3(C)[C@@H](O)CCC(C)(C)[C@@H]3[C@H](O)[C@H](OC(C)=O)[C@@]2(C)O1 [forskolin, Forskolin]
role of the component for differentiation of the chondrocytes (human fibroblasts [1]): important | Ucp1 expression, cells treated for 6 hours versus 3 hours ([6]; 0.1, 1 or 10 μM, FIG. 12 B): more enhanced | expression of Cited1 after treatment [6]: no significant change | expression of Ckmt1 after treatment [6]: no significant change | role of the component for differentiation into cardiomyocytes (human fibroblasts [3]): important | role of the component for differentiation of the osteoblasts (human fibroblasts [2]): important

CC(C)NCC(O)c1ccc(O)c(O)c1 (stereo not drawn) [isoproterenol, Isoproterenol]
Ucp1 mRNA, 3-hour treatment ([6]; 0.1, 1 or 10 μM, versus untreated cells, FIG. 12): slightly increased | expression of Cited1 after treatment [6]: no significant change | expression of Ckmt1 after treatment [6]: no significant change
